Measured values as given in US20050119253A1, “Method of treating mental disorders using of D4 and 5-HT2A antagonists, inverse agonists or partial agonists” (priority 2003, published 2005).

Experiments:
Type in all cases: binding
[1] = molecular target: D1 (Homo sapiens, UniProt P21728); test: pKi of test compounds, D1 receptor
[2] = molecular target: D2 (Homo sapiens, UniProt P14416); test: pKi of test compounds, D2 receptor; conditions: read-out: pKi D2 (converted)
[3] = molecular target: D3 (Homo sapiens, UniProt P35462); test: pKi of test compounds, D3 receptor; conditions: for Ki: read-out: pKi D3 (converted)
[4] = molecular target: T1, 5HT1A (Homo sapiens, UniProt P08908); test: pKi of test compounds, 5HT1A receptor
T1 sequence (P08908 1-422): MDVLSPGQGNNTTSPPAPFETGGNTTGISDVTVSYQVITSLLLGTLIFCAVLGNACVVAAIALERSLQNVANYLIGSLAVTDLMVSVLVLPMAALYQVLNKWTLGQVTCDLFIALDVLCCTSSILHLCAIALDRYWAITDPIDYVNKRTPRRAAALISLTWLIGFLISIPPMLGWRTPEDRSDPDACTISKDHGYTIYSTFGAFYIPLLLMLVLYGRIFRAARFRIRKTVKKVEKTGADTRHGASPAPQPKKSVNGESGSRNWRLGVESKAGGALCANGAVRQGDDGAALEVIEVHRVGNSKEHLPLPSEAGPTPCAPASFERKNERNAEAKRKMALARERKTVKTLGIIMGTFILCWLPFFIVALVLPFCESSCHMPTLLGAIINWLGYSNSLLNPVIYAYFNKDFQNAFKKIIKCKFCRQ

[5] = molecular target: 5-HT2A receptor (Homo sapiens, UniProt P28223); test: pKi of test compounds, 5-HT2A receptor
[6] = molecular target: T2, 5HT2C (Homo sapiens, UniProt P28335); test: pKi of test compounds, 5HT2C receptor
T2 sequence (P28335 33-458): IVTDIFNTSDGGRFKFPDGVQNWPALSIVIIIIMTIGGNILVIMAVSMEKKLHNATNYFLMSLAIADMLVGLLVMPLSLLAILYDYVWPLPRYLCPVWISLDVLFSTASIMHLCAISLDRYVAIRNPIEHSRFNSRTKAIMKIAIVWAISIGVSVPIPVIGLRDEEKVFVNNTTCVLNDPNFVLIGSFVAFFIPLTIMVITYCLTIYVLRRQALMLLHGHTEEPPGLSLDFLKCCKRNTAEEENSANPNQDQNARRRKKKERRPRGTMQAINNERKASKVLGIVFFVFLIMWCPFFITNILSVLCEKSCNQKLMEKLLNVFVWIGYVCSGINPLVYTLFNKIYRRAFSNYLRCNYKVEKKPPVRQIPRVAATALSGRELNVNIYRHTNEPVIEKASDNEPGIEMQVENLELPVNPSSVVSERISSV

[7] = molecular target: T3, Alpha1A (Homo sapiens, UniProt P35348); test: pKi of test compounds, adrenergic receptor Alpha1A
T3 sequence (P35348 1-466): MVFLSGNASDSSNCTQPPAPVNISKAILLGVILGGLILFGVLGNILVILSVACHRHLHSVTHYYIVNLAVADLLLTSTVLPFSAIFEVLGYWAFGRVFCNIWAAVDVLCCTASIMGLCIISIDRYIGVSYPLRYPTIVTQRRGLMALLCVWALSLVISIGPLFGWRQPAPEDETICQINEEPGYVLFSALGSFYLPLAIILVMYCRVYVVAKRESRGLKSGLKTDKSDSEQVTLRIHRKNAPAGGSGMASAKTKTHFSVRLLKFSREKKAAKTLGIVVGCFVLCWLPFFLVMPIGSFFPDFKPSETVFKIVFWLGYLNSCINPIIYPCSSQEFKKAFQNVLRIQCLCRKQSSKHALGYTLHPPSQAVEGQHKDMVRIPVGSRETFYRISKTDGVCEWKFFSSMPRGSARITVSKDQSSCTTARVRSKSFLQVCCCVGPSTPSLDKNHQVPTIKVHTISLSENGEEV

[8] = molecular target: T4, Alpha2A (Homo sapiens, UniProt P08913); test: pKi of test compounds, adrenergic receptor Alpha2A
T4 sequence (P08913 1-465): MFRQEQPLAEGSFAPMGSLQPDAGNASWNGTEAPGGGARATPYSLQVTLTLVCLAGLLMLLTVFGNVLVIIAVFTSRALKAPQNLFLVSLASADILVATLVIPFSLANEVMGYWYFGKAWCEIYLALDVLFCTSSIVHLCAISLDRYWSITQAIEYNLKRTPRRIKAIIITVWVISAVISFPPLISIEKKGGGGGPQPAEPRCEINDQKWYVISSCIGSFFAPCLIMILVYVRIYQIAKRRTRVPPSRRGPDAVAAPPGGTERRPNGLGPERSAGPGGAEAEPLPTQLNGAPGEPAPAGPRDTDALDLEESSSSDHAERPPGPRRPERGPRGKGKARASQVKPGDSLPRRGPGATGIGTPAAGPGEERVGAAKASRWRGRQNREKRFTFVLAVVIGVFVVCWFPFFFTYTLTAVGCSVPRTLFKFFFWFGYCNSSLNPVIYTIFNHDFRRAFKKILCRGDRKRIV

[9] = molecular target: 5HT1F (Homo sapiens, UniProt P30939); test: pKi of test compounds, 5HT1F receptor
[10] = molecular target: Alpha2B (Homo sapiens, UniProt P18089); test: pKi of test compounds, adrenergic receptor Alpha2B
[11] = molecular target: T5, Alpha2C (Homo sapiens, UniProt P18825); test: pKi of test compounds, adrenergic receptor Alpha2C
T5 sequence (P18825 1-462): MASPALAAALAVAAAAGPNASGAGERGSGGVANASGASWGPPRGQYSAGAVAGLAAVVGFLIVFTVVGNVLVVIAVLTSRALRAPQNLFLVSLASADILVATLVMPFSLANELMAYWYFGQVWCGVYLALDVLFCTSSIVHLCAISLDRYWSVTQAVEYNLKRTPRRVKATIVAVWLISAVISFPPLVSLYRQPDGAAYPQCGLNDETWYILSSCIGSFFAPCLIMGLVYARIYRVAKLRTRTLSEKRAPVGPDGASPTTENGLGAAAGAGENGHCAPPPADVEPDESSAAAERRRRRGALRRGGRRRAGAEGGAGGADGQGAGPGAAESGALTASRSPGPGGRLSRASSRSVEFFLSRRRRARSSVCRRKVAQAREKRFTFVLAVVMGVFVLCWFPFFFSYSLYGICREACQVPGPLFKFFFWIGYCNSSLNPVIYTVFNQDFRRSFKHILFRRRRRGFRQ

[12] = molecular target: T6, D4 receptor (Homo sapiens, UniProt P21917); test: pKi of test compounds, D4 receptor; conditions: D4; read-out: pKi D4 (converted)
T6 sequence (P21917 1-419): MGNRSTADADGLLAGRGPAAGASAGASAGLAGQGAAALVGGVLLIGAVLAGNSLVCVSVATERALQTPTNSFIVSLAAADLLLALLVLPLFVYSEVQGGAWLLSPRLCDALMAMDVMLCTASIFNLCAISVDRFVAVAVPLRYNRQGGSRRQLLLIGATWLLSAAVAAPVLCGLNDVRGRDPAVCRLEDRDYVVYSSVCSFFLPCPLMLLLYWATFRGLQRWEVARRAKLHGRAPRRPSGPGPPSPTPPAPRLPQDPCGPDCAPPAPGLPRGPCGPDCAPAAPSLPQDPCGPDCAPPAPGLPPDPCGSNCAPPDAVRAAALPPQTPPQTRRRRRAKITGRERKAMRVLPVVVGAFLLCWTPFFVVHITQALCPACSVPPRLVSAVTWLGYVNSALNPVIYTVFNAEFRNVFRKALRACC

[13] = molecular target: 5HT1B (Homo sapiens, UniProt P28222); test: pKi of test compounds, 5HT1B receptor
[14] = molecular target: 5HT1D (Homo sapiens, UniProt P28221); test: pKi of test compounds, 5HT1D receptor; conditions: for Ki: read-out: pKi 5HT1D (converted)
[15] = molecular target: 5HT1E (Homo sapiens, UniProt P28566); test: pKi of test compounds, 5HT1E receptor
[16] = molecular target: 5HT2B (Homo sapiens, UniProt P41595); test: pKi of test compounds, 5HT2B receptor
[17] = molecular target: 5HT6rat (Rattus norvegicus, UniProt P31388); test: pKi of test compounds, 5HT6 receptor; conditions: rat; read-out: pKi 5HT6rat (converted)
[18] = molecular target: 5HT7rat (Rattus norvegicus, UniProt P32305); test: pKi of test compounds, 5HT7 receptor
[19] = molecular target: Beta1 (Homo sapiens, UniProt P08588); test: pKi of test compounds, adrenergic receptor Beta1
[20] = molecular target: Beta2 (Homo sapiens, UniProt P07550); test: pKi of test compounds, adrenergic receptor Beta2
Beta2, sequence (P07550 whole entry): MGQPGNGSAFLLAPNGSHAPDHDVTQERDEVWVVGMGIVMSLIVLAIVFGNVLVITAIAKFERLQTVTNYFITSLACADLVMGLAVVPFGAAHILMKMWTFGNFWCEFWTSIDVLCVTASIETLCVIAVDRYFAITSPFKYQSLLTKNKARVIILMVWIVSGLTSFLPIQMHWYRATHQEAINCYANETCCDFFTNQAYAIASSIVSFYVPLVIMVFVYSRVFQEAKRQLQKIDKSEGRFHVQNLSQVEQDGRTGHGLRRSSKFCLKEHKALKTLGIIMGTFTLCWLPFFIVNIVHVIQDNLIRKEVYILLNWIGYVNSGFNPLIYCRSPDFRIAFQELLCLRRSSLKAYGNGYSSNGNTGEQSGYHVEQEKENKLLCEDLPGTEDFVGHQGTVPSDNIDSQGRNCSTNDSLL

5-HT2A receptor, sequence (P28223 whole entry): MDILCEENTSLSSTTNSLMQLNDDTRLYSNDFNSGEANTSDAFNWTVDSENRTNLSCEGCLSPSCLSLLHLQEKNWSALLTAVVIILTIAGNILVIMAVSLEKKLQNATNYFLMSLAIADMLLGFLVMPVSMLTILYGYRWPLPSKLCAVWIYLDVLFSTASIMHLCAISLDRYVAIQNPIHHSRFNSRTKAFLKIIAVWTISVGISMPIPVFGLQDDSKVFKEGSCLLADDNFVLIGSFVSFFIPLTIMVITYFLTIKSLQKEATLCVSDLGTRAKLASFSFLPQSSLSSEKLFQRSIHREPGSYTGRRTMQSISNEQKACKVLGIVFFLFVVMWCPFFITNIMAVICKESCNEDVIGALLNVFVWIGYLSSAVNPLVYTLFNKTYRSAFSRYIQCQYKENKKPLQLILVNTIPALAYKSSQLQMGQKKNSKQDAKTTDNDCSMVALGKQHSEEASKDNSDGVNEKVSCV
5HT1D, sequence (P28221 whole entry, species assumed): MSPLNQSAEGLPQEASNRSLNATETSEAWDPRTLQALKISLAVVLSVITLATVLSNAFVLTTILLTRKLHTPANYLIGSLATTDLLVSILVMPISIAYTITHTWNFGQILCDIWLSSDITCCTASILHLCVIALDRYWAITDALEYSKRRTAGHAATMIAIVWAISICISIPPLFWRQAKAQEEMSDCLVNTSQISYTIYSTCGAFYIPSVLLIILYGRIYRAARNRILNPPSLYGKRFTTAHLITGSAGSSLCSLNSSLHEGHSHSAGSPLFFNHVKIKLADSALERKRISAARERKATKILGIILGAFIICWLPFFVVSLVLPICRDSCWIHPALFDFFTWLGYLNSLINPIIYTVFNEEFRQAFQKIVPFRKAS
D2, sequence (P14416 whole entry): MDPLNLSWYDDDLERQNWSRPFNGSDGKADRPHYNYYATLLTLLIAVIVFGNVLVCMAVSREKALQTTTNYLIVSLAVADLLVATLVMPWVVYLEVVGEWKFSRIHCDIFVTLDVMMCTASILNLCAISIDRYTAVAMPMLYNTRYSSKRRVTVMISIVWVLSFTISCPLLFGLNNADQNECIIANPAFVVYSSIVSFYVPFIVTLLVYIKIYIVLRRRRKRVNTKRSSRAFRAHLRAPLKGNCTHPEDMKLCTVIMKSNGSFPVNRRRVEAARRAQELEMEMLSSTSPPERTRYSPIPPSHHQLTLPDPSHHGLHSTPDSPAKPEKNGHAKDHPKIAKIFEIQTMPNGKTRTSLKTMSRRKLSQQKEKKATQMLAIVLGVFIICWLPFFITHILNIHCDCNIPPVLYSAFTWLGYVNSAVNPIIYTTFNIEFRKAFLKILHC
D1, sequence (P21728 whole entry): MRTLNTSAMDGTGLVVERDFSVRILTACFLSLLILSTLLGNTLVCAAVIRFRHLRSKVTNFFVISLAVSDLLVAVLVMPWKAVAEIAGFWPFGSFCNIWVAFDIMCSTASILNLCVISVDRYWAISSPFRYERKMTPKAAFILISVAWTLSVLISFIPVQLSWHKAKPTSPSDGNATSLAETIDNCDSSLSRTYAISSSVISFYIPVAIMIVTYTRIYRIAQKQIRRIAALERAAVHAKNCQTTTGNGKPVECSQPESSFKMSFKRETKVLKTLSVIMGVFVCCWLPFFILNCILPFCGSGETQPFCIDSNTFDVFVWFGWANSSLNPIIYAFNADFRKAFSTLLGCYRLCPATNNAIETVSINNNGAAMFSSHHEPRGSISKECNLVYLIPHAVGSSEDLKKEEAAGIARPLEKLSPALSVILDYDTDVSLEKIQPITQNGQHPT
D3, sequence (P35462 whole entry): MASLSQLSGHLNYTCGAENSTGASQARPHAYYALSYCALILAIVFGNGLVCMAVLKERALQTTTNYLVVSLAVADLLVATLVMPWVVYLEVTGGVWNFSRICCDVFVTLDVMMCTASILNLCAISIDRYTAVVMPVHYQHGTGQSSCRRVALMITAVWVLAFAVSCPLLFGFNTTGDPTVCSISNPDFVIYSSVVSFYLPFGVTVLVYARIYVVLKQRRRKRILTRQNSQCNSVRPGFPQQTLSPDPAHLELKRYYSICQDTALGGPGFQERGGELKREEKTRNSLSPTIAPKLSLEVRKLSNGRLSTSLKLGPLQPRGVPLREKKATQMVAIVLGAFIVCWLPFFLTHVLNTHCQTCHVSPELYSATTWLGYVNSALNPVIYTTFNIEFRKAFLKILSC
5HT1B, sequence (P28222 whole entry, species assumed): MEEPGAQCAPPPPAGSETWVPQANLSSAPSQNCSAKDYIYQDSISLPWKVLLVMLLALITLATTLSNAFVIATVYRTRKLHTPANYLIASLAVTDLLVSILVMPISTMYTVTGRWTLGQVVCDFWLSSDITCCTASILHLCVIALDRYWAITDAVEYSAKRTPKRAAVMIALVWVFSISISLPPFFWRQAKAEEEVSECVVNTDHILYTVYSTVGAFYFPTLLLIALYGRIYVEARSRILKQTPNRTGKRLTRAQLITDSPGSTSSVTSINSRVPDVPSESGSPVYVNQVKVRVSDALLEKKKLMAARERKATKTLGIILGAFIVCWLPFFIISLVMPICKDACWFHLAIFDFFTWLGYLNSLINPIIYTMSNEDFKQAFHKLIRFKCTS
5HT1E, sequence (P28566 whole entry, species assumed): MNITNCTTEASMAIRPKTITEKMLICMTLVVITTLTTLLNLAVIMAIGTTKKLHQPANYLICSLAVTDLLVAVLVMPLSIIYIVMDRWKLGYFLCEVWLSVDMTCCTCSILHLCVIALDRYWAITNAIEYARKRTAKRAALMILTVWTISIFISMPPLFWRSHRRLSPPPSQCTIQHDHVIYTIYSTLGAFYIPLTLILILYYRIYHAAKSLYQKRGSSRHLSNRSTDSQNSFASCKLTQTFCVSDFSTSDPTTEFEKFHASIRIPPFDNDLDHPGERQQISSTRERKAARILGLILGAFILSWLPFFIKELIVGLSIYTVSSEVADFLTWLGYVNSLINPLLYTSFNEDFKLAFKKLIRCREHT
5HT2B, sequence (P41595 whole entry, species assumed): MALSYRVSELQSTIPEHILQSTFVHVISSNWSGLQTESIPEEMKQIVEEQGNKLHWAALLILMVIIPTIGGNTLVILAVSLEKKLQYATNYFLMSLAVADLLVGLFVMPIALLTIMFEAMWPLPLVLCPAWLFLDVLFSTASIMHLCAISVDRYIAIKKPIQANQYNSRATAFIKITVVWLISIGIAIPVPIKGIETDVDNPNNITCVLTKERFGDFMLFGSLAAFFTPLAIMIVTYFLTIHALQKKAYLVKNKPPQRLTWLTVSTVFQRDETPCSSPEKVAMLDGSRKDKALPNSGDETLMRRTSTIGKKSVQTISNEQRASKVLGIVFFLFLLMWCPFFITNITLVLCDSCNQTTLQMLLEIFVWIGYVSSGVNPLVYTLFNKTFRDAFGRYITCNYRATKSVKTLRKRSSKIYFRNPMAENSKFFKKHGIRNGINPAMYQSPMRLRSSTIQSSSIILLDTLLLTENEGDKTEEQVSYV
5HT6rat, sequence (P31388 whole entry): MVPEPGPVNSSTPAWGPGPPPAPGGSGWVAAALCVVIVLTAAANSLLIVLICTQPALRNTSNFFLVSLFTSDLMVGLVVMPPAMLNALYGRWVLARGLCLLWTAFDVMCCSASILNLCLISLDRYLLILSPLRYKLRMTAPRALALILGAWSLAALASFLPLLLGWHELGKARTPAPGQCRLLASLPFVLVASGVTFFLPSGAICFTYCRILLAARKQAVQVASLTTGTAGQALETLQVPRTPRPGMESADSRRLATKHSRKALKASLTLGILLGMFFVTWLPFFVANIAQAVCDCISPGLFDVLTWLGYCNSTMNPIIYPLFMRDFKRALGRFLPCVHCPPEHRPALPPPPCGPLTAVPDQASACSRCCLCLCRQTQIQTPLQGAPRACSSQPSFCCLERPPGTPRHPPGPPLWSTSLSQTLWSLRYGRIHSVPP
5HT7rat, sequence (P32305 whole entry): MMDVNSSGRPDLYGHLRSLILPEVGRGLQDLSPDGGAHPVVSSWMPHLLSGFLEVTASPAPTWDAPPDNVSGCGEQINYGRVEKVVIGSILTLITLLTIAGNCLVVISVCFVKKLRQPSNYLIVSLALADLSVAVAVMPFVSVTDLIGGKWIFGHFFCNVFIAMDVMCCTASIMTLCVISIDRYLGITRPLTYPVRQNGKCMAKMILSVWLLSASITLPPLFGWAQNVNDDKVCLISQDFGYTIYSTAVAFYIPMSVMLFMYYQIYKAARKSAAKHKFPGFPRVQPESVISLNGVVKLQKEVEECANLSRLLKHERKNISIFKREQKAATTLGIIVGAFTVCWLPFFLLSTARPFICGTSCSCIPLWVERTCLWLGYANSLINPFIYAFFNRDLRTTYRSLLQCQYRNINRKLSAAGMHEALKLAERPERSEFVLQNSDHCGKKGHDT

Structure (SMILES)	Ki [1] [nM]	Ki [2] [nM]	Ki [3] [nM]	Ki [4] [nM]	Ki [5] [nM]	Ki [6] [nM]	Ki [7] [nM]	Ki [8] [nM]	Ki [12] [nM]	other results
CCNC(=O)N1CCN(CCCC(c2ccc(F)cc2)c2ccc(F)cc2)CC1 [Amperozide]	100 to 1000	100 to 1000	100 to 1000	> 1000	1 to 10	> 1000	10 to 100	> 1000	–	–
CN1CCN(C2=Nc3cc(Cl)ccc3Nc3ccccc32)CC1 [Clozapine]	–	–	–	–	–	–	–	–	–	Ki [9]: 100 to 1000 nM
Fc1cccc2c1O[C@H]1CNC[C@@H]1O2 [Fluparoxan]	–	–	–	100 to 1000	–	–	100 to 1000	1 to 10	–	Ki [10]: 1 to 10 nM; Ki [11]: 1 to 10 nM
O=C1NCN(c2ccccc2)C12CCN(CCCC(c1ccc(F)cc1)c1ccc(F)cc1)CC2 [Fluspirilene]	–	< 1	–	–	–	–	–	–	1 to 10	Ki [13]: > 1000 nM; Ki [14]: > 1000 nM; Ki [15]: > 1000 nM
OC1(c2ccc(Cl)cc2)CCN(Cc2c[nH]c3ccccc23)CC1 [L741626]	–	–	–	–	–	–	–	–	–	pKi D3 [3]: 7-8; pKi 5HT1B [13]: <6; pKi 5HT1D [14]: <6; pKi 5HT2B [16]: 6-7; pKi Alpha2A [8]: <6
CN1CC2c3ccccc3Oc3ccc(Cl)cc3C2C1 (stereo not drawn) [ORG5222]	1 to 10	–	1 to 10	1 to 10	< 1	< 1	< 1	1 to 10	1 to 10	Ki [13]: 1 to 10 nM; Ki [14]: 1 to 10 nM; Ki [15]: 10 to 100 nM; Ki [17]: < 1 nM; Ki [18]: < 1 nM; Ki [11]: 10 to 100 nM; Ki [19]: > 1000 nM; Ki [20]: > 1000 nM
Cc1nc2c(C)cccn2c(=O)c1CCN1CCC(c2noc3cc(F)ccc23)CC1 [Ocaperidone]	10 to 100	< 1	1 to 10	10 to 100	< 1	10 to 100	< 1	–	1 to 10	–
CCN1CCC[C@H]1CNC(=O)c1c(O)c(Cl)cc(Cl)c1OC [Raciopride]	> 1000	–	1 to 10	> 1000	–	> 1000	> 1000	> 1000	–	–
